Experiments:
Androgen receptor (AR) = molecular target: T1, Androgen receptor (AR) (Homo sapiens, UniProt P10275, T878A); experiment: Assessment of AR proteolytic activity (Western blotting of LNCap cell lysates); format: cell-based; conditions: 24 hours of treatment, Western blotting quantified with Image J
T1 construct: 5.5×10^5 LNCap cells were injected into each well of a 6-well plate; endogenous in cells; host or cells: LNCaP
T1 sequence (P10275 1-920 T878A): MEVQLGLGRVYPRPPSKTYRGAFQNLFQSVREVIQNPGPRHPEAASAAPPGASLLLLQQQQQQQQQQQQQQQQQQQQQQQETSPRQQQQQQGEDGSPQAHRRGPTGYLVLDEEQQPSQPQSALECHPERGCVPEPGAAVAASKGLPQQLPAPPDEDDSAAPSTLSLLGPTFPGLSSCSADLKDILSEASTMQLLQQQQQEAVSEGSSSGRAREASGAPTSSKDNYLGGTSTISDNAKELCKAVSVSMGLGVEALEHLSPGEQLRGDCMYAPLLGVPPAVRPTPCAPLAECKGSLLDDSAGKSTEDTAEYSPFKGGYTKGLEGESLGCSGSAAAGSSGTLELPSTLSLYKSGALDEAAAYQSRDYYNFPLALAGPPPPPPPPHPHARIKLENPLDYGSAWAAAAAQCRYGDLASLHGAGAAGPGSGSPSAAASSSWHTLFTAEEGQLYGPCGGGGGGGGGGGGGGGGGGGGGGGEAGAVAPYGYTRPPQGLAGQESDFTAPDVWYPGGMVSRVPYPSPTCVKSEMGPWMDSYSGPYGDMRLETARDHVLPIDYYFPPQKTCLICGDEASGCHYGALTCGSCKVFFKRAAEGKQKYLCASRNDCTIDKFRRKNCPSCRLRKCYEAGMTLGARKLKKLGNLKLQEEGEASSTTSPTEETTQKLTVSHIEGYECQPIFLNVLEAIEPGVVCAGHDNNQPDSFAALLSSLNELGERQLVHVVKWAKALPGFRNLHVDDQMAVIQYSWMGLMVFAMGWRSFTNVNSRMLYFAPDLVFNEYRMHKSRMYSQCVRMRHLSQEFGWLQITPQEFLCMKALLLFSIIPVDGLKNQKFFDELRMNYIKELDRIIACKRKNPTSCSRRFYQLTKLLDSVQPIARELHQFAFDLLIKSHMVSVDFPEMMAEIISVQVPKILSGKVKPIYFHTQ
Outline: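 LNCap cells seeded at 5.5×10^5 per well and treated with compound for 24 hours. Lysates prepared in RIPA buffer (pH 7.5, with protease inhibitors). AR protein levels assessed by Western blot with densitometric quantification.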

Row | Degradation (1 μM treated in LNCaP, % AR remaining) (Androgen receptor (AR)) [%] | Structure (SMILES) | CC50 (LNCaP cells) [nM] | CC50 (VCaP cells) [nM]
1 | 14.7 | CC1(C)[C@H](NC(=O)c2ccc(C#CC3CCN(C(=O)COc4ccc5nnn(C6CCC(=O)NC6=O)c(=O)c5c4)CC3)cc2)C(C)(C)[C@H]1Oc1ccc(C#N)c(Cl)c1 (stereo partly drawn) [Example 144, N-((1r,3r)-3-(3-chloro-4-cyanophenoxy)-2,2,4,4-tetramethylcyclobutyl)-4-((1-(2-((3-(2,6-dioxopiperidin-3-yl)-4-oxo-3,4-dihydrobenzo[d][1,2,3]triazin-6-yl)oxy)acetyl)piperidin-4-yl)ethynyl)benzamide] | 144 | 21
2 | 43.6 | CC1(C)[C@H](NC(=O)c2ccc(N3CCN(CCCC4CCN(C(=O)C5CN(c6ccc7nnn(C8CCC(=O)NC8=O)c(=O)c7c6)C5)CC4)CC3)cc2)C(C)(C)[C@H]1Oc1ccc(C#N)c(Cl)c1 (stereo partly drawn) [Example 47, N-((1r,3r)-3-(3-chloro-4-cyanophenoxy)-2,2,4,4-tetramethylcyclobutyl)-4-(4-(3-(1-(1-(3-(2,6-dioxopiperidin-3-yl)-4-oxo-3,4-dihydrobenzo[d][1,2,3]triazin-6-yl)azetidine-3-carbonyl)piperidin-4-yl)propyl)piperazin-1-yl)benzamide] | 168 | 23.7
3 | 20 | CC1(C)[C@H](NC(=O)c2ccc(C#CC3CCN(CC4CCN(c5ccc6nnn(C7CCC(=O)NC7=O)c(=O)c6c5)CC4)CC3)cc2)C(C)(C)[C@H]1Oc1ccc(C#N)c(Cl)c1 (stereo partly drawn) [Example 99, N-((1r,3r)-3-(3-chloro-4-cyanophenoxy)-2,2,4,4-tetramethylcyclobutyl)-4-((1-((1-(3-(2,6-dioxopiperidin-3-yl)-4-oxo-3,4-dihydrobenzo[d][1,2,3]triazin-6-yl)piperidin-4-yl)methyl)piperidin-4-yl)ethynyl)benzamide] | 31.5 | 2

Continued, compound first:

Row | Structure (SMILES) | Degradation (1 μM treated in LNCaP, % AR remaining) (Androgen receptor (AR)) [%] | CC50 (LNCaP cells) [nM] | CC50 (VCaP cells) [nM]
4 | CC1(C)[C@H](NC(=O)c2ccc(N3CCN(CCC4CCN(c5ccc6nnn(C7CCC(=O)NC7=O)c(=O)c6c5)CC4)CC3)cc2)C(C)(C)[C@H]1Oc1ccc(C#N)c(Cl)c1 (stereo partly drawn) [Example 29, N-((1r,3r)-3-(3-chloro-4-cyanophenoxy)-2,2,4,4-tetramethylcyclobutyl)-4-(4-(2-(1-(3-(2,6-dioxopiperidin-3-yl)-4-oxo-3,4-dihydrobenzo[d][1,2,3]triazin-6-yl)piperidin-4-yl)ethyl)piperazin-1-yl)benzamide] | 6 | 425 | 120
5 | CC1(C)[C@H](NC(=O)c2ccc(N3CCN(CCC4CCN(C(=O)CNc5ccc6nnn(C7CCC(=O)NC7=O)c(=O)c6c5)CC4)CC3)cc2)C(C)(C)[C@H]1Oc1ccc(C#N)c(Cl)c1 (stereo partly drawn) [Example 25, N-((1r,3r)-3-(3-chloro-4-cyanophenoxy)-2,2,4,4-tetramethylcyclobutyl)-4-(4-(2-(1-((3-(2,6-dioxopiperidin-3-yl)-4-oxo-3,4-dihydrobenzo[d][1,2,3]triazin-6-yl)glycyl)piperidin-4-yl)ethyl)piperazin-1-yl)benzamide] | 50 | 2130 | 45.7
6 | CC1(C)[C@H](NC(=O)c2ccc(N3CCN(CCC4CCN(c5cccc6nnn(C7CCC(=O)NC7=O)c(=O)c56)CC4)CC3)cc2)C(C)(C)[C@H]1Oc1ccc(C#N)c(Cl)c1 (stereo partly drawn) [Example 28, N-((1r,3r)-3-(3-chloro-4-cyanophenoxy)-2,2,4,4-tetramethylcyclobutyl)-4-(4-(2-(1-(3-(2,6-dioxopiperidin-3-yl)-4-oxo-3,4-dihydrobenzo[d][1,2,3]triazin-5-yl)piperidin-4-yl)ethyl)piperazin-1-yl)benzamide] | 69 | 1280 | 1580

Reference: patent US20240018123A1, “COMPOUND FOR INHIBITING OR DISINTEGRATING ANDROGEN RECEPTOR, AND PHARMACEUTICAL USE THEREOF” (KOREA RESEARCH INSTITUTE OF CHEMICAL TECHNOLOGY, priority 2020, published 2024)
